IC50 data for 5 molecules are collected here from patent publication US9468642B2, “Imidazopyrazines” (BAYER INTELLECTUAL PROPERTY GMBH, priority 2011, dated 2016).

This test has as its target human kinase Mps-1 (Homo sapiens (Human), UniProt P33981). Put plainly: Mps-1 Kinase Assay (TR-FRET). In kind it is biochemical. Conditions: N-terminally GST-tagged human full length recombinant Mps-1; 10 μM ATP; 1 μM peptide substrate; 60 min at 22° C.; read-out: Mps1 IC50. The method, then:
The human kinase Mps-1 phosphorylates a biotinylated substrate peptide. Detection of the phosphorylated product is achieved by time-resolved fluorescence resonance energy transfer (TR-FRET) from Europium-labelled anti-phospho-Serine/Threonine antibody as donor to streptavidin labelled with cross-linked allophycocyanin (SA-XLent) as acceptor. Compounds are tested for their inhibition of the kinase activity.
N-terminally GST-tagged human full length recombinant Mps-1 kinase (purchased from Invitrogen, Karslruhe, Germany, cat. no PV4071) was used. As substrate for the kinase reaction a biotinylated peptide of the amino-acid sequence […] (C-terminus in amide form, purchased from Biosynthan GmbH, Berlin) was used.
The concentration of Mps-1 in the assay was adjusted to the activity of the enzyme lot and was chosen appropriate to have the assay in the linear range, typical enzyme concentrations were in the range of about 1 nM (final conc. in the 5 μl assay volume).
The resulting mixture was incubated 1 h at 22° C. to allow the binding of the phosphorylated peptide to the anti-phospho(Ser/Thr)-Europium-antibody. Subsequently the amount of phosphorylated substrate was evaluated by measurement of the resonance energy transfer from the Europium-labelled anti-phospho(Ser/Thr) antibody to the Streptavidin-XLent.
Background: TR-FRET usually uses a lanthanide donor and a delayed reading to cut background.

Chain of human kinase Mps-1 (P33981 whole entry): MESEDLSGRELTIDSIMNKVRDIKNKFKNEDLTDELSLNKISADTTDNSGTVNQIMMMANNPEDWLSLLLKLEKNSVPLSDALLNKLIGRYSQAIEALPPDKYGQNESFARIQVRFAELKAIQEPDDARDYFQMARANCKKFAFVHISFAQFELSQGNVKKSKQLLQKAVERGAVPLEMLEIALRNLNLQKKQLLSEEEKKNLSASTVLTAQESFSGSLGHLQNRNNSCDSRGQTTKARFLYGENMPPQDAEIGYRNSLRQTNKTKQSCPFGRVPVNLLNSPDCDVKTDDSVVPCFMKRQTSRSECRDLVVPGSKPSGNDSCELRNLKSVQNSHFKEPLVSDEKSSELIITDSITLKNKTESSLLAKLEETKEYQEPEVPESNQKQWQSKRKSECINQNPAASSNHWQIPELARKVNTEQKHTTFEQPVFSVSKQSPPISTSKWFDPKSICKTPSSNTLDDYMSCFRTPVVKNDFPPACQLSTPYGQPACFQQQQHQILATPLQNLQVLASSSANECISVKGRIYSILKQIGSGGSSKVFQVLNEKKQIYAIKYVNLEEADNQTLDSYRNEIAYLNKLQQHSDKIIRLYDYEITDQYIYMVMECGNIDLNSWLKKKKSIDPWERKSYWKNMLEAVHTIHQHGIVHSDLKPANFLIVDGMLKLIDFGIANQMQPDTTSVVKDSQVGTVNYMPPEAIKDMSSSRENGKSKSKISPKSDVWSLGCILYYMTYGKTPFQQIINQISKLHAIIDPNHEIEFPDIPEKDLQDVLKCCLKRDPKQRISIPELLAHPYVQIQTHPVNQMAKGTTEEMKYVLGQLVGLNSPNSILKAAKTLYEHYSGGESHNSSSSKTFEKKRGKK

As to `CC(C)CCS(=O)(=O)c1nc(-c2ccccc2)cn2c(-c3ccc(C(=O)NC4CC4)cc3)cnc12` [Example 24B, N-cyclopropyl-4-{8-[(3-methylbutyl)sulfonyl]-6-phenylimidazo[1,2-a]pyrazin-3-yl}benzamide], the IC50 amounted to 6.5 nM. Regarding “(1S or 1R)-1-(4-{3-[4-(2-cyclopropyl-1H-imidazol-5-yl)phenyl]-8-(methylsulfanyl)imidazo[1,2-a]pyrazin-6-yl}phenyl)ethanol [Example 34C]”, the IC50 was found to be 95 nM. In the case of `CCCSc1nc(-c2ccccc2)cn2c(-c3ccc(C(=O)NC4CC4)cc3)cnc12` [Example 6, N-Cyclopropyl-4-[6-phenyl-8-(propylsulfanyl)imidazo[1,2-a]pyrazin-3-yl]benzamide] it was 11 nM. In the case of `CSc1nc(-c2ccncc2)cn2c(-c3ccc(-c4cnc(C5CC5)[nH]4)cc3)cnc12` [Example 31, 3-[4-(2-cyclopropyl-1H-imidazol-5-yl)phenyl]-8-(methylsulfanyl)-6-(pyridin-4-yl)imidazo[1,2-a]pyrazine] it was 125 nM. For the molecule `CS(=O)(=O)c1nc(-c2ccccc2)cn2c(-c3ccc(C(=O)NC4CC4)cc3)cnc12` (racemic) [Example 3A, N-Cyclopropyl-4-[8-(methylsulfonyl)-6-phenylimidazo[1,2-a]pyrazin-3-yl]benzamide], the IC50 is 6 nM.

What is called IC50 is the concentration at which inhibition is half-maximal.
